Measurements taken from patent US5536719A, “Benzothiadiazine compound” (Adir et Compagnie, priority 1994, dated 1996).

Experiments:
[1] = Il Farmaco, Ed. Sc., 1978, 33, 713-720; cited from earlier work
[2] = test system: AMPA receptor (rat cortex mRNA expressed in Xenopus oocytes); test: excitatory currents induced by AMPA in Xenopus oocytes (voltage-clamp); assay type: cell-based, rat (male Wistar) receptors expressed in Xenopus oocytes; conditions: for EC2X (concentration which doubles the intensity of the current induced by AMPA alone) / EC5X (concentration which increases five-fold the intensity of the current induced by AMPA alone): Xenopus oocytes, rat cortex mRNA, agonist AMPA (30 mM [sic])
Protocol: Study of the excitatory currents induced by AMPA in Xenopus oocytes mRNAs are prepared from male Wistar rat cerebral cortex by the guanidium thiocyanate/phenol/chloroform method. The poly(A^+) mRNAs are isolated by chromatography on oligo-dT cellulose and injected at an amount of 50 ng per oocyte. The oocytes are left to incubate for 2 to 3 days at 18° C. in order to allow expression of the receptors, and are then stored at 8°-10° C. The electrophysiological recording is performed in a plexiglass® chamber at 20°-24° C. in OR2 medium (J. Exp. Zool., 1973, 184, 321-334) by the "voltage-clamp" method with 2 electrodes, a 3rd electrode placed in the bath serving as reference. All the compounds are applied via the incubation medium and the electric current is measured at the end of the period of application. The AMPA is used at a concentration of […]. The concentration which doubles (EC2X) or which increases five-fold (EC5X) the intensity of the current induced by AMPA alone (50 to 100 nA) is determined for each compound studied.

[3] = test system: AMPA receptors of neuronal cells; conditions: Journal of Neurochemistry, 1992, 58, 1199-1204; cited from earlier work
NMDA = test: currents induced by NMDA in Xenopus oocytes (selectivity); assay type: cell-based, rat (male Wistar) receptors expressed in Xenopus oocytes
kainate (KA) = test: currents induced by kainate (KA) in Xenopus oocytes (selectivity); assay type: cell-based, rat (male Wistar) receptors expressed in Xenopus oocytes
[4] = test system: slice of hippocampus (dentate gyrus EPSP); test: excitatory postsynaptic potentials (EPSP) induced by electrical stimulation on a slice of hippocampus; assay type: cell-based, male Wistar rat; conditions: compared with reference compounds, racemic mixture and R isomer
Protocol: Study of the synaptic excitatory potentials induced by electrical stimulation on a slice of hippocampus
Transverse slices of hippocampus ([…]) from a male Wistar rat are prepared using a "tissue chopper" and then incubated for 45 minutes in calcium-free medium containing 10 mM Mg^++. They are then stabilized in Krebs adjusted to pH 7.35 and oxygenated with O2 /CO2 (95%/5%) at room temperature.
The slices are submerged at 35° C. and the excitatory postsynaptic potentials (EPSP) are recorded in the dendritic field of the […] of the dentate gyms during stimulation ([…]) every 30 seconds of the perforating route via a tungsten bipolar electrode.
The EPSPs are acquired and analyzed by means of an A-D converter, a TL-1 interface and "pCLAMP" software.
The amplitude and duration of the EPSPs are evaluated on the negative wave relative to the base current.
The compounds are applied for 10 to 20 minutes in the superfusion bath containing MgSO4 (1 mM) in order to block the activation of the NMDA receptors. The concentration increasing the amplitude of the EPSP by 50% (A50) is determined for each compound.

| Structure (SMILES) | EC2X (concentration which doubles the intensity of the current induced by AMPA alone) [2] [µM] | EC5X (concentration which increases five-fold the intensity of the current induced by AMPA alone) [2] [µM] | other results |
| --- | --- | --- | --- |
| O=S1(=O)NC2CCCN2c2ccccc21 (racemic) [Racemic mixture, 5,5-Dioxo-2,3,3a,4-tetrahydro-1H-pyrrolo[2,1-c]-[1,2,4]benzothiadiazine, reference compound] | 60 | 160 | hypotensive and bradycardiac activities [1]: having hypotensive and bradycardiac activities |
| COc1ccc(C(=O)N2CCCC2=O)cc1 [Aniracetam, reference compound] | 1300 | 5000 | modulation of AMPA receptors of neuronal cells [3]: positively modulating the AMPA receptors of neuronal cells |
| CC1=NS(=O)(=O)c2cc(Cl)ccc2N1 [Diazoxide, reference compound] | 400 | 1000 | – |
| O=S1(=O)N[C@H]2CCCN2c2ccccc21 [Example 1, (3aS)-5,5-Dioxo-2,3,3a,4-tetrahydro-1H-pyrrolo[2,1-c][1,2,4]benzothiadiazine] | 35 | 70 | potentiation of the current (NMDA agonist) (NMDA): no potentiation of the current is observed; EC2X, NMDA (NMDA; selectivity table, agonist NMDA): > 300 µM; potentiation of the current (KA agonist) (kainate (KA)): no potentiation of the current is observed; EC2X, KA (kainate (KA); selectivity table, agonist kainate (KA)): > 300 µM; potentiation of the excitatory effects of AMPA ([2]; compared with reference compounds, racemic mixture and R isomer): very strongly potentiates the excitatory effects of AMPA; EC2X, AMPA ([2]; selectivity table, agonist AMPA): 35 µM; increase of the amplitude of the EPSP [4]: increases the amplitude of the EPSP at lower doses than the reference compounds, the racemic mixture or the R isomer |
| O=S1(=O)N[C@@H]2CCCN2c2ccccc21 [R isomer] | 300 | > 1000 | – |
